Source: patent publication US20240150377A1, “MODULATORS OF CYSTIC FIBROSIS TRANSMEMBRANE CONDUCTANCE REGULATOR” (VERTEX PHARMACEUTICALS INCORPORATED, priority 2020, published 2024)
Read-outs that look alike come from different tables or passages of the source. Each block holds one molecule with its values, some of them ahead of it.

Target: T1, CFTR (Homo sapiens, UniProt P13569, DEL508-508)
T1 construct: endogenous in cells; host or cells: primary human bronchial epithelial cells from CF subjects (F508del/MF-HBE), differentiated at air-liquid interface
T1 sequence (P13569 with tags, fused parts or gaps DEL508-508): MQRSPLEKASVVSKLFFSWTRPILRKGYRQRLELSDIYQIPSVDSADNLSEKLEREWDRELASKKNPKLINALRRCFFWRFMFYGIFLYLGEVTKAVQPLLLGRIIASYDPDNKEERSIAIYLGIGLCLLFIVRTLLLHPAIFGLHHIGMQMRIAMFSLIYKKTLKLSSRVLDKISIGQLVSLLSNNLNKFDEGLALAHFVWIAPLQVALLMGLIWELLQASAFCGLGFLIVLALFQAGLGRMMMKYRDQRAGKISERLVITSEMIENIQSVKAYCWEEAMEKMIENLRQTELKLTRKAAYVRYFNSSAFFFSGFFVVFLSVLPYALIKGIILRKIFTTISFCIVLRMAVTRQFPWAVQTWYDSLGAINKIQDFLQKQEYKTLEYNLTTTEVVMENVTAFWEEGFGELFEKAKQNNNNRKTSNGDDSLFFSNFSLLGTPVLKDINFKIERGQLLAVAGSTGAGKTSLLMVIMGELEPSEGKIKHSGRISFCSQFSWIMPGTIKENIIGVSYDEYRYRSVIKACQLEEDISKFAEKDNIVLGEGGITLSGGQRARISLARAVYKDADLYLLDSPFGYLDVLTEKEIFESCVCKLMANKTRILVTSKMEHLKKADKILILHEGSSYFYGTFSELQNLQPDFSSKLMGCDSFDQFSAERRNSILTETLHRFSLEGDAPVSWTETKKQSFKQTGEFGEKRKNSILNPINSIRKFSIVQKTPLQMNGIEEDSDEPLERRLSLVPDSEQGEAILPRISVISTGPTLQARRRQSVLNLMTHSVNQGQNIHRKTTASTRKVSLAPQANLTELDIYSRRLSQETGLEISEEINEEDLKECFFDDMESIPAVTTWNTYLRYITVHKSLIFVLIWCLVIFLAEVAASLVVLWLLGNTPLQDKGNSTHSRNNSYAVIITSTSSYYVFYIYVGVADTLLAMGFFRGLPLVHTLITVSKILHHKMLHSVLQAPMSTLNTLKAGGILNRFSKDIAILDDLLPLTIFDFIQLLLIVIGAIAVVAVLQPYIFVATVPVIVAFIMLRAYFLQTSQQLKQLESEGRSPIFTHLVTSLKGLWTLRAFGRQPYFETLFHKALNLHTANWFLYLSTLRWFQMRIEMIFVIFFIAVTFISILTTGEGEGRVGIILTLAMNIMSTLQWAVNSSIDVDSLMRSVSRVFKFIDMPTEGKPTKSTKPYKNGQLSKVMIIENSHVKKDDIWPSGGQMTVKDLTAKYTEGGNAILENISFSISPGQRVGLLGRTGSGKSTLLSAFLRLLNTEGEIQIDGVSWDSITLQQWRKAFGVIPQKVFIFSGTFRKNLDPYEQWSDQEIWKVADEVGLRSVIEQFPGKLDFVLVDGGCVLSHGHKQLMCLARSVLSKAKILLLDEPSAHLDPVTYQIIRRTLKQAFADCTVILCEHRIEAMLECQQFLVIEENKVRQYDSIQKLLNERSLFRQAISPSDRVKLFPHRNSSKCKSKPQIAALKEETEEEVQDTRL
Test: HBE assay: Ussing chamber assay of CFTR-mediated short-circuit currents
Type: cell-based
Conditions: for EC50: read-out: HBE EC50
Outline: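 CFTR-mediated Isc (μA/cm²) equals the peak response to apical 20 μM forskolin minus the residual after a 20 μM each BPO/GlyH-101/CFTR inhibitor 172 cocktail, recorded in Ussing chambers at Vhold 0 mV, 37 °C, pH 7.4, with 30 μM apical amiloride. Cells were F508del/MF HBE cultures preincubated 18-24 h with corrector (concentration range or 10 μM) plus 1 μM ivacaftor in 20% human serum.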

[1] = Table 12, at 10 μM, read-out: HBE Activity at 10 μM (%)
[2] = HBE assay, read-out: HBE Max activity (%)
[3] = Table 11, read-out: HBE Max Activity (%)
[4] = Table 12, read-out: HBE Max Activity (%)
[5] = Table 13, at 10 μM, read-out: HBE Activity at 10 μM (%)
[6] = Table 13, read-out: HBE Max Activity (%)
[7] = Table 10, read-out: HBE Max activity (%)
[8] = HBE assay, 10 μM, read-out: HBE Activity at 10 μM (%)

activation at 10 µM (Table 11, at 10 μM, read-out: HBE Activity at 10 μM (%)): > 60%
SMILES: Cc1cccc(C)c1-c1cc2nc(n1)NS(=O)(=O)c1cccc(c1)C(=O)N(CC1OCCCC1(C)C)[C@H](CC(C)(C)C)CO2 (single isomer, unassigned) [Compound 35]

activation at 10 µM [1]: > 600%
SMILES: Cc1cccc(C)c1-c1cc2nc(n1)NS(=O)(=O)c1cccc(c1)C(=O)N(Cc1nccc(N(C)C34CC(C3)C4)n1)[C@H](CC(C)(C)C)CO2 [Compound 447]

EC50 (HBE assay): < 1000 nM
Emax [2]: > 60%
SMILES: CCC(C)Oc1cnc(CN2C(=O)c3cccc(c3)S(=O)(=O)Nc3nc(cc(-c4c(C)cccc4C)n3)OC[C@H]2CC(C)C)nc1 (stereo in doubt) [Compound 1395]

EC50 (HBE assay): < 1000 nM
Emax [2]: > 60%
SMILES: Cc1cccc(C)c1-c1cc2nc(n1)NS(=O)(=O)c1cccc(c1)C(=O)N(Cc1ccc(OC(F)(F)F)cn1)[C@H](CC(C)(C)C)CO2 [Compound 1412]

EC50 (Table 11): < 1000 nM
Emax [3]: > 60%
SMILES: Cc1cccc(C)c1-c1cc2nc(n1)NS(=O)(=O)c1cccc(c1)C(=O)N(Cc1ncc(C3CCN(C)CC3)cn1)[C@H](CC(C)(C)C)CO2 [Compound 631]

EC50 (Table 11): < 1000 nM
Emax [3]: > 60%
SMILES: Cc1cccc(C)c1-c1cc2nc(n1)NS(=O)(=O)c1cccc(c1)C(=O)N(CC1CN(C(=O)OC(C)(C)C)CCO1)[C@H](CC(C)(C)C)CO2 (stereo partly shown) [Compound 723]

EC50 (Table 12): < 1000 nM
Emax [4]: > 60%
SMILES: Cc1cccc(C)c1-c1cc2nc(n1)NS(=O)(=O)c1cccc(c1)C(=O)N(Cc1nc(N(C)CC(C)(C)C)ccc1C(F)(F)F)[C@H](CC(C)(C)C)CO2 [Compound 457]

EC50 (Table 12): < 1000 nM
Emax [4]: > 60%
SMILES: COc1cccc(C)c1-c1cc2nc(n1)NS(=O)(=O)c1cccc(c1)C(=O)N(Cc1ncc(N3CCC(C)(C)C3)cn1)[C@H](CC(C)(C)C)CO2 [Compound 579]

activation at 10 µM [5]: > 600%
SMILES: Cc1cccc(C)c1-c1cc2nc(n1)NS(=O)(=O)c1cccc(c1)C(=O)N(CC(=O)NC1CCCC1)[C@H](CC(C)(C)C)CO2 [Compound 198]

EC50 (Table 11): < 1000 nM
Emax [3]: > 60%
SMILES: Cc1cccc(C)c1-c1cc2nc(n1)NS(=O)(=O)c1cccc(c1)C(=O)N(Cc1cccc(N3CCC[C@@H]3C)n1)[C@H](CC(C)(C)C)CO2 [Compound 710]

EC50 (Table 12): < 1000 nM
Emax [4]: > 60%
SMILES: Cc1cccc(C)c1-c1cc2nc(n1)NS(=O)(=O)c1cccc(c1)C(=O)N(Cc1cnc(C3CCOCC3)cn1)[C@H](CC(C)C)CO2 [Compound 240]

EC50 (Table 13): < 1000 nM
Emax [6]: > 60%
SMILES: Cc1cccc(C)c1-c1cc2nc(n1)NS(=O)(=O)c1cccc(c1)C(=O)N(Cc1ccc(OC(C)C)nn1)[C@H](CC(C)(C)C)CO2 [Compound 234]

EC50 (Table 10): < 1000 nM
Emax [7]: > 60%
SMILES: Cc1cccc(C)c1-c1cc2nc(n1)NS(=O)(=O)c1cccc(c1)C(=O)N(Cc1ncccc1-c1c(C)n[nH]c1C)[C@H](CC(C)(C)C)CO2 [Compound 301]

EC50 (Table 13): < 1000 nM
Emax [6]: > 60%
SMILES: Cc1cccc(C)c1-c1cc2nc(n1)NS(=O)(=O)c1cccc(c1)C(=O)N(Cc1ccc(NC(C)C)cn1)[C@H](CC(C)(C)C)CO2 [Compound 996]

activation at 10 µM [8]: > 60%
SMILES: CCC1(CO)CCCN1c1cccc(CN2C(=O)c3cccc(c3)S(=O)(=O)Nc3nc(cc(-c4c(C)cccc4C)n3)OC[C@H]2CC(C)(C)C)n1 (stereo in doubt) [Compound 1458]

activation at 10 µM (Table 10, at 10 μM, read-out: HBE activity at 10 (μM) (%)): > 60%
SMILES: Cc1cccc(C)c1-c1cc2nc(n1)NS(=O)(=O)c1cccc(c1)C(=O)N(CC1CCCCC1)[C@H](CC(C)(C)C)CO2 [Compound 832]

EC50 (HBE assay): < 1000 nM
Emax [2]: > 60%
SMILES: Cc1cccc(C)c1-c1cc2nc(n1)NS(=O)(=O)c1cccc(c1)C(=O)N(Cc1cncc(N(C)C3CCCC3)n1)[C@H](CC(C)(C)C)CO2 [Compound 1387]

EC50 (HBE assay): < 1000 nM
Emax [2]: > 60%
SMILES: Cc1cccc(C)c1-c1cc2nc(n1)NS(=O)(=O)c1cccc(c1)C(=O)N(Cc1ncc(N3CCC(F)(F)C3)cn1)[C@H](CC(C)(C)C)CO2 [Compound 1379]

EC50 (Table 11): < 1000 nM
Emax [3]: > 60%
SMILES: COC1CCN(c2cccc(CN3C(=O)c4cccc(c4)S(=O)(=O)Nc4nc(cc(-c5c(C)cccc5C)n4)OC[C@H]3CC(C)(C)C)n2)CC1 [Compound 722]

activation at 10 µM [1]: > 600%
SMILES: Cc1cc(N(C)C)nc(CN2C(=O)c3cccc(c3)S(=O)(=O)Nc3nc(cc(-c4c(C)cccc4C)n3)OC[C@H]2CC(C)(C)C)n1 [Compound 324]

EC50 (HBE assay): < 1000 nM
Emax [2]: > 60%
SMILES: COCC1CCC(C)(C)N1c1cncc(CN2C(=O)c3cccc(c3)S(=O)(=O)Nc3nc(cc(-c4c(C)cccc4C)n3)OC[C@H]2CC(C)(C)C)n1 (stereo in doubt) [Compound 1480]

EC50 (Table 10): < 1000 nM
Emax [7]: > 60%
SMILES: Cc1cccc(C)c1-c1cc2nc(n1)NS(=O)(=O)c1cccc(c1)C(=O)N(CC1CCCO1)[C@H](CC(C)(C)C)CO2 (stereo partly shown) [Compound 835]

EC50 (Table 11): 1000 to 3000 nM
Emax [3]: > 60%
SMILES: Cc1cccc(C)c1-c1cc2nc(n1)NS(=O)(=O)c1cccc(c1)C(=O)N(Cc1ncc(N3CC4(CC4)C3)cn1)[C@H](CC(C)(C)C)CO2 [Compound 622]

EC50 (Table 12): < 1000 nM
Emax [4]: > 60%
SMILES: Cc1cccc(C(C)C)c1-c1cc2nc(n1)NS(=O)(=O)c1cccc(c1)C(=O)N(Cc1cnc(C3CCOCC3)cn1)[C@H](CC(C)(C)C)CO2 [Compound 1064]

EC50 (Table 10): < 1000 nM
Emax [7]: > 60%
SMILES: CNC(=O)COc1ccc(CN2C(=O)c3cccc(c3)S(=O)(=O)Nc3nc(cc(-c4c(C)cccc4C)n3)OC[C@H]2CC(C)(C)C)cc1 [Compound 778]

EC50 (Table 11): < 1000 nM
Emax [3]: > 60%
SMILES: Cc1cccc(C)c1-c1cc2nc(n1)NS(=O)(=O)c1cccc(c1)C(=O)N(CC1CN(C(=O)C(C)(C)C)CCO1)[C@H](CC(C)(C)C)CO2 (stereo partly shown) [Compound 714]

EC50 (Table 12): < 1000 nM
Emax [4]: > 60%
SMILES: COC[C@@H]1CCCN1c1cncc(CN2C(=O)c3cccc(c3)S(=O)(=O)Nc3nc(cc(-c4c(C)cccc4C)n3)OC[C@H]2CC(C)(C)C)n1 [Compound 273]

EC50 (HBE assay): < 1000 nM
Emax [2]: > 60%
SMILES: Cc1cccc(C)c1-c1cc2nc(n1)NS(=O)(=O)c1cccc(c1)C(=O)N(Cc1ncc(N3C[C@@H](F)[C@@H](F)C3)cn1)[C@H](CC(C)(C)C)CO2 [Compound 1481]

activation at 10 µM [8]: > 60%
SMILES: CC(=O)N(C)c1cnc(CN2C(=O)c3cccc(c3)S(=O)(=O)Nc3nc(cc(-c4c(C)cccc4C)n3)OC[C@H]2CC(C)(C)C)nc1 [Compound 1516]

EC50 (HBE assay): < 1000 nM
Emax [2]: > 60%
SMILES: COCCN(CC(C)C)c1cncc(CN2C(=O)c3cccc(c3)S(=O)(=O)Nc3nc(cc(-c4c(C)cccc4C)n3)OC[C@H]2CC(C)(C)C)n1 [Compound 1418]

EC50 (HBE assay): < 1000 nM
Emax [2]: > 60%
SMILES: Cc1cccc(C)c1-c1cc2nc(n1)NS(=O)(=O)c1cccc(c1)C(=O)N(Cc1ncc(N3CCC(C)(C)C3)cn1)[C@H](CC1CCC1)CO2 [Compound 1477]

EC50 (HBE assay): < 1000 nM
Emax [2]: > 60%
SMILES: Cc1cccc(C)c1-c1cc2nc(n1)NS(=O)(=O)c1cccc(c1)C(=O)N(Cc1ncc(O[C@@H](C)C(C)C)cn1)[C@H](CC(C)(C)C)CO2 [Compound 1301, (11R)-6-(2,6-Dimethylphenyl)-12-[[5-[(1S)-1,2-dimethylpropoxy]pyrimidin-2-yl]methyl]-11-(2,2-dimethylpropyl)-2,2-dioxo-9-oxa-2λ^6-thia-3,5,12,19-tetrazatricyclo[12.3.1.14,8]nonadeca-1(18),4(19),5,7,14,16-hexaen-13-one]

activation at 10 µM [8]: > 60%
SMILES: COCC1(CNc2cncc(CN3C(=O)c4cccc(c4)S(=O)(=O)Nc4nc(cc(-c5c(C)cccc5C)n4)OC[C@H]3CC(C)(C)C)n2)CC1 [Compound 1484]

EC50 (Table 11): < 1000 nM
Emax [3]: > 60%
SMILES: CNc1ccnc(CN2C(=O)c3cccc(c3)S(=O)(=O)Nc3nc(cc(-c4c(C)cccc4C)n3)OC[C@H]2CC(C)(C)C)n1 [Compound 647]

activation at 10 µM [5]: > 600%
SMILES: CC(=O)N1CCN(c2cccc(CN3C(=O)c4cccc(c4)S(=O)(=O)Nc4nc(cc(-c5c(C)cccc5C)n4)OC[C@H]3CC(C)(C)C)n2)CC1 [Compound 253]

EC50 (Table 11): 1000 to 3000 nM
Emax [3]: > 60%
SMILES: Cc1cccc(C)c1-c1cc2nc(n1)NS(=O)(=O)c1cccc(c1)C(=O)N(Cc1nccc(N(C)C3CCCC3)n1)[C@H](CC(C)(C)C)CO2 [Compound 617]

EC50 (HBE assay): < 1000 nM
Emax [2]: > 60%
SMILES: Cc1cccc(C)c1-c1cc2nc(n1)NS(=O)(=O)c1cccc(c1)C(=O)N(Cc1cncc(NC3CCCC34CCC4)n1)[C@H](CC(C)(C)C)CO2 (stereo partly shown) [Compound 1348]

EC50 (Table 11): < 1000 nM
Emax [3]: > 60%
SMILES: Cc1cccc(C)c1-c1cc2nc(n1)NS(=O)(=O)c1cccc(c1)C(=O)N(Cc1nccc(N3CCC(C)(C)C3)n1)[C@H](CC(C)(C)C)CO2 [Compound 648]

activation at 10 µM [5]: > 600%
SMILES: Cc1cccc(C)c1-c1cc2nc(n1)NS(=O)(=O)c1cccc(c1)C(=O)N(CC(=O)N1CCc3ccccc3C1)[C@H](CC(C)(C)C)CO2 [Compound 207]

EC50 (Table 11): < 1000 nM
Emax [3]: > 60%
SMILES: Cc1cccc(C)c1-c1cc2nc(n1)NS(=O)(=O)c1cccc(c1)C(=O)N(Cc1ncc(C3CCOCC3)cn1)[C@H](CC(C)(C)C)CO2 [Compound 634]

activation at 10 µM [5]: > 600%
SMILES: Cc1cccc(C)c1-c1cc2nc(n1)NS(=O)(=O)c1cccc(c1)C(=O)N(Cc1ccc(C(=O)N3CCC(C)(C)C3)cn1)[C@H](CC(C)(C)C)CO2 [Compound 246]

EC50 (HBE assay): < 1000 nM
Emax [2]: > 60%
SMILES: Cc1cccc(C)c1-c1cc2nc(n1)NS(=O)(=O)c1cccc(c1)C(=O)N(Cc1ncc(N3CC(C)(C)CC3=O)cn1)[C@H](CC(C)(C)C)CO2 [Compound 1365]
